Measurements: article PMC10223552 (Pharmaceuticals, 2023)
Read-outs that look alike come from different tables or passages of the source.

Assays:
gpH3R = target: T1, gpH3R (Cavia porcellus, UniProt Q9JI35); experiment: Ex vivo assay for histamine H3R antagonists on electrically stimulated guinea pig ileum
T1 construct: from tissue; host or cells: isolated distal ileum of male guinea pigs
Protocol: All newly synthesized compounds were evaluated as H3R antagonists/inverse agonists on the guinea pig ileum (gpH3R), stimulated electrically to induce contractions. The distinct affinity profile and species-dependent pharmacology of H3R ligands are known. […] Therefore, to compare species differences, all newly synthesized compounds were subjected to radioligand displacement assay in membrane fractions of HEK-293 cells stably expressing hH3R.
(§1) Ex vivo assay for histamine H3R and H1R antagonists were measured on the isolated guinea pig ileum stimulated to contractions by histamine. The pA2-values were calculated according to Arunlakshana and Schild. The radioligand-displacement binding assay was performed in membrane fractions of HEK-293 cells stably expressing hH3R. Cell cultivation and membrane preparation was performed according to Kottke et al.. The Ki values were calculated from the IC50 values using the Cheng–Prusoff equation [37]. The statistical calculations were performed on –log(Ki). […] The inhibitory activities of novel ADS compounds were assessed in spectrophotometric Ellman’s assay using AChE from electric eel (eeAChE) and BuChE from horse serum (eqBuChE).
3. Pharmacological assay results.
3.1. Ex vivo assay for histamine H3R receptor antagonists on guinea pig ileum.
Male guinea pigs, weighing 300-400 g were euthanized by a blow to the neck. Following this, a 20-30 cm length of the distal ileum, apart from the terminal 5 cm was rapidly removed and placed in phosphate buffer at room […]
indomethacin (Sigma-Aldrich, St. Louis, MO, USA) (1·10-6 mol/L). The intraluminal content was rinsed and the isolated intestine was cut into 1.5-2 cm segments. The preparations were mounted between two platinum electrodes […]
load of 1.0 g (Hugo Sachs Hebel-Messvorsatz (Tl-2)/HF-modem; Hugo Sachs Elektronik, Hugstetten, Germany) connected to a pen recorder (Kipp & Zonen BD41, Delft, Holland). During an equilibration period of 60 min, the Krebs buffer was changed every 10 min. The preparations were then continuously stimulated at 15-20 V at a frequency of 0.1 Hz for a duration of 0.5 ms, with rectangular-wave electrical pulses (Grass Stimulator S-88; Grass Instruments Co., Quincy, Massachusetts, USA). […] Five minutes […]
before (R)-(−)-α-methylhistamine (RAMH) (Toronto Research Chemicals Inc., North York, Canada), […]
added. The first cumulative concentration-response curve was determined to RAMH (10 nM – 10 mM) at an […]
The second to fourth curve was measured against increasing antagonist concentration (incubation time 20 min). The pA2-values were calculated according to Arunlakshana and Schild. [Br J Pharmacol Chemother. […] Statistical analysis was carried out with the Students’ t-test. In all tests, a p<0.05 was considered statistically significant. The pA2 values were compared with the affinity of thioperamide (Sigma-Aldrich, St. Louis, MO, USA).

eeAChE = target: T2, eeAChE (Electrophorus electricus, UniProt O42275); experiment: biochemical; design: species or system electric eel; settings: for inhibition at 10 µM: read-out: eeAChE % inh. (10 µM) ± SD
T2 construct: purchased Sigma–Aldrich (Steinheim, Germany)
T2 sequence (O42275 24-633): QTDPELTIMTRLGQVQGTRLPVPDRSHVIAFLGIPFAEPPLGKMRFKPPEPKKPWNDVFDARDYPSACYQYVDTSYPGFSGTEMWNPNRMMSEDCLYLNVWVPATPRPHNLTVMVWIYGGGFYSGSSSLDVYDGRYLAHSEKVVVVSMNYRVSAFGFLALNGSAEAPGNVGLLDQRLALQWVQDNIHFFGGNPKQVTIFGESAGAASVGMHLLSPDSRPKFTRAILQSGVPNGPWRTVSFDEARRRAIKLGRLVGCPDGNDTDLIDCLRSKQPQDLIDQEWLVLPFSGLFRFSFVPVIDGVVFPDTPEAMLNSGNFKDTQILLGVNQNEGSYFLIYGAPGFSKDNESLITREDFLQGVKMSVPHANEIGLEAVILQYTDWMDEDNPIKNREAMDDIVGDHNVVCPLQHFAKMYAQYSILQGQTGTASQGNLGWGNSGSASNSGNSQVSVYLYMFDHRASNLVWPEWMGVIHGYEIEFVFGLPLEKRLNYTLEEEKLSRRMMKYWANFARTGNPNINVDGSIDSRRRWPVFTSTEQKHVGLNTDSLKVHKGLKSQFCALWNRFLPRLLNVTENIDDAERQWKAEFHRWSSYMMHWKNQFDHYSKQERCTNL

gpH1R = target: T3, gpH1R (Cavia porcellus, UniProt P31389); experiment: Ex vivo assay for histamine H1R antagonists on guinea pig ileum stimulated by histamine (+atropine); settings: gpH1R +Atropine pA2 ± sem, isolated guinea pig ileum, vs histamine, 0.05 µM atropine
T3 construct: from tissue; host or cells: isolated distal ileum of male guinea pigs
T3 sequence (P31389 whole entry): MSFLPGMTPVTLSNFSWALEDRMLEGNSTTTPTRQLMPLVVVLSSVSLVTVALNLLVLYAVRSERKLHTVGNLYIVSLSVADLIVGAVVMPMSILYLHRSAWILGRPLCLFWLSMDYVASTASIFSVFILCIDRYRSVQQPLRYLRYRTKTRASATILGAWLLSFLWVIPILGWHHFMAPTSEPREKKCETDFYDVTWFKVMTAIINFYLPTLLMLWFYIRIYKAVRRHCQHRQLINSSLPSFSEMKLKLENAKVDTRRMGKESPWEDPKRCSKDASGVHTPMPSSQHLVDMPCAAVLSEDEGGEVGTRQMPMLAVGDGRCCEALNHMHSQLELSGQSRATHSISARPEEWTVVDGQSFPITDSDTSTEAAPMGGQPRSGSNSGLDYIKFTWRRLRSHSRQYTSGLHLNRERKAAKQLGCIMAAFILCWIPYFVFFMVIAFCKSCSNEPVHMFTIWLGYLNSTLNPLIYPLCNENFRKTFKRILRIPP
Protocol: A second histamine receptor located in the guinea pig ileum is H1R. The antagonistic effect at H1R was measured on the isolated guinea pig ileum stimulated to contractions by histamine. To eliminate the impact of muscarinic receptors located on the tested tissue, 0.05 µM of atropine was added to the Krebs buffer.
as §1
3.2 Ex vivo assay for histamine H1R receptor antagonists on guinea pig ileum.
Male guinea pigs, weighing 300-400 g were euthanized by a blow to the neck. A 20-30 cm length of the distal ileum, apart from the terminal 5 cm was rapidly removed and placed in phosphate buffer at room temperature (pH […]
Aldrich, St. Louis, MO, USA) (1·10-6 mol/L). The intraluminal content was rinsed and the isolated intestine was cut into 1.5-2 cm segments. The preparations were mounted isotonically in a 20 mL organ bath filled with Krebs […]
a constant load of 0.5 g (Hugo Sachs Hebel-Messvorsatz (Tl-2)/HF-modem; Hugo Sachs Elektronik, Hugstetten, Germany) connected to a pen recorder (Kipp & Zonen BD41, Delft, Holland). During an equilibration period of 40 min, the Krebs buffer was changed every 10 min. The first cumulative concentration-response curve was determined to histamine (Sigma-Aldrich, St. Louis, MO, USA) (10 nM - 10 mM) at increasing concentration spaced by three or 3.3-fold. The second to the fourth (or fifth) curve was measured in the presence of an increasing concentration of antagonist (incubation time 10 min). The pA2-values were calculated according to Arunlakshana and Schild. [Br J Pharmacol Chemother. […] Statistical analysis was carried out with the Students’ t-test. In all tests, a p<0.05 was considered statistically significant. The pA2 values were compared with the affinity

eqBuChE = eqBuChE (Equus caballus, UniProt P81908); experiment: biochemical; settings: for inhibition at 10 µM: read-out: eqBuChE % inh. (10 µM) ± SD; for IC50: read-out: eqBuChE IC50 ± sem
Chain of eqBuChE (P81908 whole entry): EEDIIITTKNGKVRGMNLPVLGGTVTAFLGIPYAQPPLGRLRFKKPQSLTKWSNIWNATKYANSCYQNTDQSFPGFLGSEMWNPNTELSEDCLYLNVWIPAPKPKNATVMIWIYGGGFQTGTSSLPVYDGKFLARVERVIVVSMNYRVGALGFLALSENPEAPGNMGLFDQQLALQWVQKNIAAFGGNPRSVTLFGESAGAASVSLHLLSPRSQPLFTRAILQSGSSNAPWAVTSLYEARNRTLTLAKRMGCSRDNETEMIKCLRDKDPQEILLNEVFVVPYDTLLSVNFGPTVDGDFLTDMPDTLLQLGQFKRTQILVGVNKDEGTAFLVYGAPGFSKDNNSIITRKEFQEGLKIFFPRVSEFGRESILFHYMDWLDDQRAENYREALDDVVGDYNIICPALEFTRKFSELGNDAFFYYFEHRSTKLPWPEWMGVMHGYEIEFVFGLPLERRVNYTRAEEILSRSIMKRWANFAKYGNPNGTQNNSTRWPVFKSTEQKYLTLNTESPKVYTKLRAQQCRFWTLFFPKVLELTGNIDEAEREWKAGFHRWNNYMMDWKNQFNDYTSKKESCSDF

hH3R = target: T4, hH3R (Homo sapiens, UniProt Q9Y5N1); experiment: biochemical; type: binding
T4 construct: expressed in transfected cells
T4 sequence (Q9Y5N1 whole entry): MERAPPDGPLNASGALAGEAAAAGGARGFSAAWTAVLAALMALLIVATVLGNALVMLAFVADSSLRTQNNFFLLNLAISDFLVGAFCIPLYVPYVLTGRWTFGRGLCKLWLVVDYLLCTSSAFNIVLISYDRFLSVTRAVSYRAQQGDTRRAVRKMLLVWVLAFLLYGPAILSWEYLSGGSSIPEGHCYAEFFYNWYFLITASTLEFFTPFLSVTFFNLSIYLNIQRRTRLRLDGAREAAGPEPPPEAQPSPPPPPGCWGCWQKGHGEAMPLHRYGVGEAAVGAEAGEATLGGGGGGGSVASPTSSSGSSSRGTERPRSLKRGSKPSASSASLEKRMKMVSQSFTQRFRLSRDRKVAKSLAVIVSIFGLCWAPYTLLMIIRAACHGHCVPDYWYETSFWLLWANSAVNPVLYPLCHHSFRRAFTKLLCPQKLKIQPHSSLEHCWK
Protocol: as §1, with “All newly synthesized compounds were evaluated as H3R antagonists/inverse agonists on the guinea pig ileum (gpH3R), stimulated electrically to induce contractions. The distinct affinity profile and species-dependent pharmacology of H3R ligands are known. […] Therefore, to compare species differences, all newly synthesized compounds were subjected to radioligand displacement assay in membrane fractions of HEK-293 cells stably expressing hH3R. […] Ex” for “Ex”
3.3 hH3R radioligand displacement binding assay.
The radioligand displacement binding assay was performed in membrane fractions of HEK-293 cells stably expressing hH3R. Cell cultivation and membrane preparation was performed according to Kottke et al. [T. Kottke, […]
radioligand displacement assay, radioactively labeled [3H]Nα-methylhistamine was used at a final concentration […]
The total assay volume was set to 200 µL. The compounds were tested in several appropriate concentrations between 100 µM and 0.1 nM. Pipetting was partly done by Freedom Evo® (Tecan).
The membrane fraction (20 […]
µg/well), test compounds and radiolabeled ligand were incubated for 90 minutes at 25 °C while shaking. The bound radioligand was separated from the free radioligand by filtration through GF/B filters pre-treated with 0.3 % (m/v) polyethyleneimine using a cell harvester. Radioactivity was determined by liquid scintillation counting using a MicroBeta® Trilux (Perkin Elmer). The data was obtained in duplicates in at least three independent experiments. Non-specific binding was subtracted from the raw data to calculate specific-binding values. The evaluation was performed with GraphPad Prism 6.1 (San Diego, CA, USA) using non-linear regression (one-site competition with a logarithmic scale). The Ki values were calculated from the IC50 values using the Cheng-Prusoff […]
equation. [C. […] The statistical calculations […]
were performed on –log(Ki).

[1] = mean ± sem, at least three independent experiments, read-out: hH3R -log(Ki) ± sem (converted)
[2] = hH3R -log(Ki) ± sem, mean ± sem, at least three independent experiments
[3] = isolated guinea pig ileum, vs RAMH, read-out: gpH3R pA2 ± sem (converted)

T1 sequence (Q9JI35 whole entry): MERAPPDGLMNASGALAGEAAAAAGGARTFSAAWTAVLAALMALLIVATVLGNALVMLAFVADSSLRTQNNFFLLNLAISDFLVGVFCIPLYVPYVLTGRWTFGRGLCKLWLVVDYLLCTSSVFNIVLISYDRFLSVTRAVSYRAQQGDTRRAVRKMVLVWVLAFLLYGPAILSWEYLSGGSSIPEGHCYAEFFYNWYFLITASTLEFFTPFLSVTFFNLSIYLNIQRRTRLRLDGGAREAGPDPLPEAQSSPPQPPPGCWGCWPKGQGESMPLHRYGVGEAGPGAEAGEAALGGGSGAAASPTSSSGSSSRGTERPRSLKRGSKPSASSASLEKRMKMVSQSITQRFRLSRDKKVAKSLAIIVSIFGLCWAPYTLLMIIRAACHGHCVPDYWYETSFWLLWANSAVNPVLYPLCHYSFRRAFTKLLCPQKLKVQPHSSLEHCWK

Compound	Kb (gpH3R)	inhibition at 10 µM (eeAChE)	Kb (gpH1R)	inhibition at 10 µM (eqBuChE)	Ki (hH3R; [1])	IC50 (eeAChE; eeAChE IC50 ± sem)	IC50 (eqBuChE)	Ki (hH3R; [2])	Ki (hH3R; hH3R Ki)	gpH3R pA2 ± sem (gpH3R; isolated guinea pig ileum, vs RAMH, 20 min)	Kb (gpH3R; [3])	Kd (hH3R; radioligand used at 2 nM)
N=C(N)N(CCCCN1CCN(CCCOCCCc2ccccc2)CC1)Cc1ccccc1 [ADS10349]	45.7 nM	6.4 ± 1.3%	347 nM	32.4 ± 4.2%	2510 nM	–	–	–	–	–	–	–
N=C(N)N(CCCc1ccc(Cl)cc1)CCCN1CCCCC1 [ADS10292]	45.7 nM	50.6 ± 0.8%	1200 nM	54.3 ± 4.7%	–	10900 nM	8400 ± 200 nM	2690 nM	–	–	–	–
N=C(N)N(CCCCN1CCN(CCCCCCCOc2ccc(Cl)cc2)CC1)Cc1ccc(C(F)(F)F)cc1 [ADS10376]	7.08 nM	27.8 ± 5.1%	214 nM	71.4 ± 0.6%	–	–	4900 ± 200 nM	398 nM	–	–	–	–
N=C(NCCCCc1ccc(Cl)cc1)NCCCN1CCCCC1 [ADS10306]	47.9 nM	17.8 ± 0.7%	67.6 nM	89.4 ± 0.1%	–	–	1600 nM	195 nM	< 200 nM	–	–	–
N=C(N)N(CCCCc1ccc(Cl)cc1)CCCN1CCCCC1 [ADS10312]	93.3 nM	22.2 ± 3.9%	1380 nM	72.6 ± 5.2%	–	–	3500 ± 100 nM	525 nM	–	–	–	–
N=C(N)N(CCCCN1CCN(CCCCCCCOc2ccccc2)CC1)Cc1ccc(C(F)(F)F)cc1 [ADS1020]	–	–	871 nM	–	437 nM	–	–	–	–	8.49 ± 0.05	–	–
N=C(NCCCc1ccc(Cl)cc1)NCCCN1CCCCC1 [ADS10298]	–	39.8 ± 2.6%	132 nM	20.3 ± 0.8%	–	–	–	537 nM	–	–	41.7 nM	–
S=C(NC1CCCCC1)N1CCC(c2cnc[nH]2)CC1 [Thioperamide, reference compound]	–	–	–	–	–	–	–	–	–	–	1.55 nM	–
N=C(NCCCCN1CCCCC1)NCCCc1ccc(Cl)cc1 [ADS10301]	22.9 nM	11.3 ± 0.4%	347 nM	60.4 ± 0.7%	–	–	5900 ± 100 nM	191 nM	< 200 nM	–	–	–
N=C(N)N(CCCCN1CCN(CCCOCCCc2ccc(Cl)cc2)CC1)Cc1ccccc1 [ADS10278]	14.8 nM	44 ± 0.9%	117 nM	76.6 ± 1.3%	324 nM	–	2000 ± 100 nM	–	–	–	–	–
N=C(N)N(CCCCN1CCN(CCCOCCCc2ccc(Cl)cc2)CC1)Cc1ccc(C(F)(F)F)cc1 [ADS10279]	5.25 nM	47.4 ± 1.2%	135 nM	67.5 ± 0.5%	–	–	4800 ± 100 nM	1070 nM	–	–	–	–
N=C(N)N(CCCCN1CCCCC1)CCCc1ccc(Cl)cc1 [ADS10300]	47.9 nM	40.7 ± 1.8%	2510 nM	75.2 ± 0.4%	–	–	2400 ± 100 nM	603 nM	–	–	–	–
CNCCc1cnc[nH]1 [[3H]Nα-methylhistamine, reference compound]	–	–	–	–	–	–	–	–	–	–	–	3.08 nM
N=C(N)N(CCCCN1CCN(CCCOCCCc2ccccc2)CC1)Cc1ccc(C(F)(F)F)cc1 [ADS10350]	–	1 ± 0.2%	269 nM	28.3 ± 3.2%	–	–	–	2690 nM	–	–	28.8 nM	–
N=C(N)N(CCCCN1CCN(CCCCCCCOc2ccc(Cl)cc2)CC1)Cc1ccccc1 [ADS10377]	15.1 nM	34.3 ± 2.6%	123 nM	84.6 ± 1.5%	–	–	1900 ± 100 nM	282 nM	–	–	–	–
